Test results taken from patent publication US20250205208A1, “USE OF SU3327 IN PREPARATION OF MEDICAMENT FOR REDUCING CYTOTOXICITY AND NEPHROTOXICITY OF POLYMYXIN” (XIAMEN HANLIXIN PHARMACEUTICAL CO., LTD., priority 2023, published 2025).

How the values were obtained:
HEK293 cells = test: Cell viability test by CCK-8 method; assay type: cell-based, Human
Method: Human Embryonic Kidney cells (HEK293), preserved by National Center for Veterinary Drug Safety Evaluation of China Agricultural University.
Cytotoxicity was determined by a CCK-8 method. After HEK293 cells (5×10^4 cells/well) were seeded onto 96-well tissue culture plates and cultured for 24 hours, the cells were treated with SU3327 or Polymyxin E alone or in combination, with SU3327 in a final concentration of 5 μM, 2.5 μM, 1.25 μM and 0.625 μM; Polymyxin E in a final concentration of 2 mM; combination groups of SU3327 and Polymyxin E: Polymyxin E (2 mM)+SU3327 (5 μM), Polymyxin E (2 mM)+SU3327 (2.5 μM), Polymyxin E (2 mM)+SU3327 (1.25 μM), Polymyxin E (2 mM)+SU3327 (0.625 μM), and control group (Control) 0.1% DMSO. Following continued culture for 24 h, a CCK-8 kit was used to detect the changes in cell viability.

[1] = system: mice having kidney damage induced by Polymyxin E; test: Mouse model of nephrotoxicity by Polymyxin E: kidney histopathology and semiquantitative scoring (SQS); assay type: in vivo, C57BL/6 mice; conditions: for pathological damage score: 10 days, P<0.001
Method: (§1) C57BL/6 mice, male, 8-week-old, weighing 20-22 g, purchased from Vital River Laboratory Animal Technology Co., Ltd.
(§2) The mice were housed in the National Center for Veterinary Drug Safety Evaluation of China Agricultural University, fed with routine pelleted feed and free access to water, at a controlled temperature of (22±2)° C., and a humidity of (50±10) %. Adaptive housing was performed for 1 week before experiments.
(§3) […] were randomly divided into 6 groups (n=8 in each group), as follows:
(§4) Control group: the mice were intraperitoneally injected with an equivalent amount of normal saline.
(§5) Polymyxin E model group: the mice were intraperitoneally injected with Polymyxin E
(§6) at a single dose of 10 mg/kg body weight, twice a day, with an interval of 8 hours between doses; i.e., the mice were administered with Polymyxin E in 20 mg/kg body weight per day.
(§7) SU3327 control group: the mice were intraperitoneally injected with dissolved SU3327 at a single dose of 10 mg/kg body weight, once a day for 10 straight days; i.e., the mice were administered with SU3327 in 10 mg/kg body weight per day.
(§8) SU3327 high-dose protection group: the mice were intraperitoneally injected with SU3327 at a single dose of 10 mg/kg body weight, concurrently with Polymyxin E in 10 mg/kg, twice, with an interval of 8 hours between doses; i.e., the mice were administered with SU3327 in 10 mg/kg body weight per day, concurrently with Polymyxin E in 20 mg/kg body weight per day.
as §8, with “medium-dose” for “high-dose”, “[…]” for “10”
as §8, with “SU3327 low-dose protection group:” for “SU3327 high-dose protection group:”, “dose of 2.5 mg/kg body” for “dose of 10 mg/kg body”, “SU3327 in 2.5 mg/kg body” for “SU3327 in 10 mg/kg body”
In the experiments above, reference was made to the previously published literature by the inventors for the method of establishing the mouse model of nephrotoxicity by Polymyxin E (Dai C, Tang S, Wang Y, Velkov T, Xiao X. Baicalein acts as a nephroprotectant that ameliorates colistin-induced nephrotoxicity by activating the antioxidant defence mechanism of the kidneys and down-regulating the inflammatory response. J Antimicrob Chemother. 2017 Sep. 1; 72(9):2562-2569).
Following dosing by injection for 10 straight days, the mice were euthanized by intraperitoneal injection with an overdose of sodium pentobarbital (80 mg/kg) 24 hours post the last dosing, and blood and kidney tissues were collected quickly, the serum and tissues were processed as follows.
The isolated, fresh kidney tissues were washed with normal saline, sampled and fixed in 10% neutral formalin for 48 h, after being flushed with water, and then dehydrated, cleared, immersed in paraffin, embedded, sectioned and stained in sequence. The pathological changes in kidney tissues were observed and photographed under a microscope. HE staining: the paraffin sections were taken, and placed in an oven at a constant temperature of 60° C. for 30 min; followed by paraffin removal and dehydration with ethanol, and immersing with double distilled water; hematoxylin staining for 10 min, rinsing with tap water, and differentiation with acid alcohol; flushing with running water until the sections turned blue; 95% ethanol for 30 s, alcoholic eosin staining for 30 s, 95% ethanol for 30 s, and 100% ethanol for 30 s; clearing with Xylene, and sealing with neutral gum.
Following HE staining, damages to the renal tissues were evaluated using a semiquantitative scoring (SQS). […]

[2] = system: mice having kidney damage induced by Polymyxin E; test: Mouse model of nephrotoxicity by Polymyxin E: urea nitrogen and creatinine in serum; assay type: in vivo, C57BL/6 mice
Method: as §1, §2, §3, §4, §5, §6, §7, §8
as §8, with “medium-dose” for “high-dose”, “[…]” for “10”
SU3327 low-dose protection group: the mice were intraperitoneally injected with SU3327 at a single dose of 2.5 mg/kg body weight, concurrently with Polymyxin E in 10 mg/kg, twice, with an interval of 8 hours between doses; i.e., the mice were administered with SU3327 in 2.5 mg/kg body weight per day, concurrently with Polymyxin E in 20 mg/kg body weight per day. […]
The blood samples collected from the mice were centrifuged at 3000 rpm for 10 min, and the supernatant was aspirated. The changes of urea nitrogen in serum and creatinine in serum were detected by an automatic biochemical detector.

[3] = in vivo; cited from earlier work
JNK = conditions: read-out: IC50 as JNK inhibitor; cited from earlier work
JNK and JIP = conditions: read-out: IC50 for inhibition of protein interaction between JNK and JIP; cited from earlier work
E. coli = conditions: laboratory tests, Collins group, Cell 2020; cited from earlier work
Clostridium difficile = conditions: laboratory tests, Collins group, Cell 2020; cited from earlier work
Akt kinases = conditions: cited from earlier work
p38α = p38α (Homo sapiens, UniProt Q16539); conditions: cited from earlier work
[4] = system: Mycobacterium tuberculosis; conditions: laboratory tests, Collins group, Cell 2020; cited from earlier work
[5] = Polymyxin E 20 mg/kg per day i.p. for 10 straight days
[6] = SU3327 at 2.5, 5 and 10 mg/kg i.p. in combination with Polymyxin E 20 mg/kg per day, 10 days

p38α, sequence (Q16539 whole entry): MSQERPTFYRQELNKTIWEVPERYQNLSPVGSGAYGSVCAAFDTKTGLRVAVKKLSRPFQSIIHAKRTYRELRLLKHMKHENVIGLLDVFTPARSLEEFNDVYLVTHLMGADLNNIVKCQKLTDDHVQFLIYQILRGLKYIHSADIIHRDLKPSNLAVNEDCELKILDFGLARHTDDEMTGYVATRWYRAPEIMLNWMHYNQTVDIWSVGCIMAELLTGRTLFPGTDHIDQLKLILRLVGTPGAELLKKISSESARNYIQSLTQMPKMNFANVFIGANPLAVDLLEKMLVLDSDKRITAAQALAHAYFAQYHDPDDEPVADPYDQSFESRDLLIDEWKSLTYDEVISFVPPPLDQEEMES

Compound: Polymyxin E
- cell viability (HEK293 cells; polymyxin alone 2 mM, 24 hours): 55.3%
- average of pathological semiquantitative score [1, 5]: 3
- kidney pathological damages (epithelial cell shedding, necrosis, tubular casts) [1, 5]: obvious pathological damages
- level of BUN in the serum compared to control group [2, 5]: significantly up-regulated
- level of CRE in the serum compared to control group [2, 5]: significantly up-regulated
- clinical incidence of nephrotoxicity [3]: up to 60%
- clinical incidence of neurotoxicity [3]: about 7%
- clinical incidence of symptoms from mild peripheral neurotoxicity [3]: ≤ 100%

Compound: Nc1nnc(Sc2ncc([N+](=O)[O-])s2)s1 [SU3327]
- IC50 (JNK): 0.7 µM
- IC50 (JNK and JIP): 0.239 µM
- growth of E. coli (E. coli): effectively prevented the growth
- killing of Clostridium difficile (Clostridium difficile): killed
- cell viability (HEK293 cells; SU3327 2.5 μM in combination with Polymyxin E 2 mM, 24 h): 68.5%
- cell viability compared to treatment group with polymyxin alone (HEK293 cells; SU3327 (5-0.625 μM) in combination with Polymyxin E 2 mM, 24 h): increased to some extent
- cell viability compared with control group (HEK293 cells; SU3327 alone in 5 μM, 2.5 μM, 1.25 μM and 0.625 μM, 24 h): significantly changed
- activity for Akt kinases (Akt kinases): low activity
- activity for p38α (p38α): low activity
- pathological damage score ([1]; SU3327 2.5 mg/kg i.p. in combination with Polymyxin E 20 mg/kg per day): 1
- pathological damage score ([1]; SU3327 5 mg/kg i.p. in combination with Polymyxin E 20 mg/kg per day): 0.75
- pathological damage score ([1]; SU3327 10 mg/kg i.p. in combination with Polymyxin E 20 mg/kg per day): 0.5
- pathological changes in renal tubules ([1]; SU3327 in combination with Polymyxin E): remarkably improved
- level of creatinine in the serum compared to Polymyxin E model group [2, 6]: significantly lowered
- level of urea nitrogen in the serum compared to Polymyxin E model group [2, 6]: significantly lowered
- killing of Mycobacterium tuberculosis [4]: killed
